Test system: individuals with poor sleep, anxiety, worry
Assay: Individual cases treated with the four herb combination
Type: in vivo, human
Conditions: third case; patient history, prostate medication
Source text: For example, the four herb combination was used to treat three separate individuals, each at a different age with varying problems. The following are cases of how the four herb combination has improved the sleep onset, sleep maintenance, and energy of these individuals. […] They took Codeine and Paracetamol for 3 months, gradually reducing the dose whilst undergoing physiotherapy. The physiotherapy continued for approximately 6 months until the arm was fully functional and pain-free. One year after the original injury, their sleep was still impaired with onset and maintenance insomnia. The person stated that they “dreaded bedtime” and the hours they would be lying awake in bed. They worried during the day, with the worry increasing in the evening. […] In addition, they had changed their lifestyle avoiding commitments in the morning, and not socializing at night as they were worried that the stimulation would further impair their sleep. After 2 weeks on the herbal combination they noticed improvements. At 1 month, they were falling asleep within 20 minutes (versus over an hour before starting the treatment) and was waking up only once per night (versus 3 times or more before starting treatment). […] Their pattern was to readily fall asleep but then wake up 6 times throughout the night which led to urinating half the time, and then having difficulty returning to sleep. […]

CCOc1ccccc1OCCN[C@H](C)Cc1ccc(OC)c(S(N)(=O)=O)c1 [Flomax, Tamsulosin]
reducing night-time urination: some improvement
waking at nights: not reduced
